Laboratory results: patent publication US9187487B2, “Azaindole derivatives as tyrosine kinase inhibitors” (PRINCIPIA BIOPHARMA, INC., priority 2011, dated 2015)

What follows are compounds tested against recombinant JAK3 (catalytic domain, aa 781-1124) (Homo sapiens (Human), UniProt P52333) (assay: JAK3 Caliper Peptide Phosphorylation Assay). Conditions: fluorescently labeled Srctide substrate 1 uM; ATP at 1×Km (2 uM); 2 hours at 25° C.
Type: biochemical
Method: JAK3 Caliper Peptide Phosphorylation Assay
Phosphorylation of the appropriate peptide substrate (fluorescently labeled Srctide) by recombinant JAK3 (catalytic domain, aa 781-1124) was measured in the presence and absence of different concentrations of test compounds. Test compound, enzyme, fluorescently labeled substrate, and cofactors (ATP and Mg^2+) were combined in a well of a microtiter plate and incubated for 2 hours at 25° C. The composition of the reaction buffer was 100 mM HEPES pH 7.5, 5 mM MgCl2, 0.01% Triton-X 100, 0.1% Bovine Serum Albumin, and 1% DMSO. Enzyme concentration in the final reaction mixture was 0.5 nM while peptide substrate was at 1 uM. ATP was used at 1×Km concentration corresponding to 2 uM. Serial dilutions (3-fold steps) of compounds were prepared in DMSO. At the end of the incubation, the reaction was stopped by the addition of 20 mM EDTA. Substrate and product (i.e. phosphorylated substrate) were separated electrophoretically and both were quantified by fluorescence intensity using the microfluidics-based LabChip 3000 Drug Discovery System from Caliper Life Sciences. Conversion for each well was calculated and plotted as function of test compound concentration. IC50 value was determined by fitting the data to a 4-parameter logistic model by non-linear regression (XLfit model 205). In every assay, Staurosporine was tested in the same manner as reference compound. Selectivity for JAK3 was determined using commercially available kinase cross-screening services (DiscoveRx, San Diego, Calif.).

Sequence of recombinant JAK3 (catalytic domain, aa 781-1124) (P52333 781-1124): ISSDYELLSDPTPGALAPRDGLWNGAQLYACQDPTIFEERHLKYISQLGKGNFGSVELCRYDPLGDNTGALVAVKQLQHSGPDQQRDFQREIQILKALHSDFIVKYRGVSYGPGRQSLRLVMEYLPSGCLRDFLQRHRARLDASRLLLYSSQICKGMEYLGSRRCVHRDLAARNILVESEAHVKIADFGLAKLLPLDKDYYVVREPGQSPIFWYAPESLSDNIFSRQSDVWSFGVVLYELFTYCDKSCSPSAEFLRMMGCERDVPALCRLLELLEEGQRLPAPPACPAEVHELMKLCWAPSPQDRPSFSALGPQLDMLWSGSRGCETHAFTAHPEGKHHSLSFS

| IC50 [nM] | SMILES |
| --- | --- |
| 1150 | CC(C)NC(=O)c1c[nH]c2ncc(Oc3cccc(C=C(C#N)C(=O)N(C)C)c3)nc12 [compound 51, 2-(3-(2-cyano-3-(dimethylamino)-3-oxoprop-1-en-1-yl)phenoxy)-N-isopropyl-5H-pyrrolo[2,3-b]pyrazine-7-carboxamide] |
| 320 | CN(C)C(=O)C(C#N)=Cc1ccc(Oc2cnc3[nH]ccc3n2)cc1 [compound 32, 3-(4-((5H-pyrrolo[2,3-b]pyrazin-2-yl)oxy)phenyl)-2-cyano-N,N-dimethylacrylamide] |
| 345 | CC(C)(C)C(=O)c1c[nH]c2ncc(-c3cccc(NC(=O)C(C#N)=CC4CC4)c3)nc12 [compound 102, 2-cyano-3-cyclopropyl-N-(3-(7-pivaloyl-5H-pyrrolo[2,3-b]pyrazin-2-yl)phenyl)acrylamide] |
| 0.7 | CC(C)NC(=O)c1c[nH]c2ncc(Nc3ccc(C=C(C#N)C(=O)N4CCOCC4)cc3)nc12 [compound 80, N-(isopropyl)-2-((4-(2-cyano-3-morpholino-3-oxoprop-1-en-1-yl)phenyl)amino)-5H-pyrrolo[2,3-b]pyrazine-7-carboxamide] |
| > 1000 | CN(C)C(=O)C(C#N)=Cc1cccc(Oc2ncnc3[nH]ccc23)c1 [compound 11, 3-(3-((7H-pyrrolo[2,3-d]pyrimidin-4-yl)oxy)phenyl)-2-cyano-N,N-dimethylacrylamide] |
| > 1000 | CN(C)C(=O)C(C#N)=Cc1cccc(Oc2cnc3[nH]ccc3n2)c1 [compound 31, 3-(3-((5H-pyrrolo[2,3-b]pyrazin-2-yl)oxy)phenyl)-2-cyano-N,N-dimethylacrylamide] |
| 104 | CN(C)C(=O)C(C#N)=Cc1cccc(-c2cnc3[nH]cc(C(=O)C(C)(C)C)c3n2)c1 [compound 97, 2-cyano-N,N-dimethyl-3-(3-(7-pivaloyl-5H-pyrrolo[2,3-b]pyrazin-2-yl)phenyl)acrylamide] |
| 3 | CC(C)(C)C(=O)c1c[nH]c2ncc(Nc3ccc(C=C4SC(=O)N(CCN)C4=O)cc3)nc12 [compound 89, 3-(2-aminoethyl)-5-(4-((7-pivaloyl-5H-pyrrolo[2,3-b]pyrazin-2-yl)amino)benzylidene)thiazolidine-2,4-dione] |
| 680 | CN(C)C(=O)C(C#N)=Cc1ccc(-c2cnc3[nH]cc(C(=O)C(C)(C)C)c3n2)cc1 [compound 96, 2-cyano-N,N-dimethyl-3-(4-(7-pivaloyl-5H-pyrrolo[2,3-b]pyrazin-2-yl)phenyl)acrylamide] |
| > 1000 | CN(C)C(=O)C(C#N)=Cc1cccc(Nc2cnc3[nH]ccc3n2)c1 [compound 29, 3-(3-((5H-pyrrolo[2,3-b]pyrazin-2-yl)amino)phenyl)-2-cyano-N,N-dimethylacrylamide] |
| 0.4 | CC(C)(C)C(=O)c1c[nH]c2ncc(Nc3ccc(C=C(C#N)C(N)=O)cc3)nc12 [compound 60, 2-cyano-3-(4-((7-pivaloyl-5H-pyrrolo[2,3-b]-pyrazin-2-yl)amino)phenyl)acrylamide] |
| 0.2 | CN(C)C(=O)C(C#N)=Cc1ccc(Nc2cnc3[nH]cc(C(=O)NC(C)(C)C)c3n2)cc1 [compound 71, N-(tert-butyl)-2-((4-(2-cyano-3-(dimethylamino)-3-oxoprop-1-en-1-yl)phenyl)amino)-5H-pyrrolo[2,3-b]pyrazine-7-carboxamide] |
| 0.6 | CC(C)(C)C(=O)c1c[nH]c2ncc(Nc3ccc(C=C(C#N)S(C)(=O)=O)cc3)nc12 [compound 81, 2-(methylsulfonyl)-3-(4-((7-pivaloyl-5H-pyrrolo[2,3-b]pyrazin-2-yl)amino)phenyl)-acrylonitrile] |

Continued, compound first:

| SMILES | IC50 [nM] |
| --- | --- |
| CN(C)C(=O)C(C#N)=Cc1cccc(Oc2cnc3[nH]cc(C(=O)C(C)(C)C)c3n2)c1 [compound 100, 2-cyano-N,N-dimethyl-3-(3-((7-pivaloyl-5H-pyrrolo[2,3-b]pyrazin-2-yl)oxy)phenyl)acrylamide] | > 5000 |
| CN(C)C(=O)C(C#N)=Cc1ccc(Oc2ncnc3[nH]ccc23)cc1 [compound 12, 3-(4-((7H-pyrrolo[2,3-d]pyrimidin-4-yl)oxy)phenyl)-2-cyano-N,N-dimethylacrylamide] | 280 |
| CN(C)CCN1C(=O)SC(=Cc2ccc(Nc3cnc4[nH]cc(C(=O)C(C)(C)C)c4n3)cc2)C1=O [compound 88, 3-(2-(dimethylamino)ethyl)-5-(4-((7-pivaloyl-5H-pyrrolo[2,3-b]pyrazin-2-yl)amino)-benzylidene)thiazolidine-2,4-dione] | 3 |
| CN(C)C(=O)C(C#N)=Cc1cccc(-c2ncnc3[nH]ccc23)c1 [compound 1, 3-(3-(7H-pyrrolo[2,3-d]pyrimidin-4-yl)phenyl)-2-cyano-N,N-dimethylacrylamide] | 305 |
| CN(C)C(=O)C(C#N)=Cc1cccc(Nc2ncnc3[nH]ccc23)c1 [compound 3, 3-(3-((7H-pyrrolo[2,3-d]pyrimidin-4-yl)amino)-phenyl)-2-cyano-N,N-dimethylacrylamide] | 150 |
| CC(C)NC(=O)c1c[nH]c2ncc(Nc3ccc(C=C(C#N)C(=O)N(C)C)cc3)nc12 [compound 50, 2-((4-(2-cyano-3-(dimethylamino)-3-oxoprop-1-en-1-yl)phenyl)amino)-N-isopropyl-5H-pyrrolo[2,3-b]pyrazine-7-carboxamide] | 0.2 |
| CN(C)C(=O)C(C#N)=Cc1ccc(Nc2cnc3[nH]cc(C(=O)C(C)(C)C)c3n2)cc1 [compound 57, 2-cyano-N,N-dimethyl-3-(4-((7-pivaloyl-5H-pyrrolo[2,3-b]pyrazin-2-yl)amino)phenyl)-acrylamide] | 1 |
| Cc1ccc(Nc2ncnc3[nH]ccc23)cc1C=C(C#N)C(=O)N(C)C [compound 19, 3-(5-((7H-pyrrolo[2,3-d]pyrimidin-4-yl)amino)-2-methylphenyl)-2-cyano-N,N-dimethylacrylamide] | > 5000 |
| CC(C)NC(=O)c1c[nH]c2ncc(-c3cccc(C=C(C#N)C(=O)N(C)C)c3)nc12 [compound 47, 2-(3-(2-cyano-3-(dimethylamino)-3-oxoprop-1-en-1-yl)phenyl)-N-isopropyl-5H-pyrrolo[2,3-b]pyrazine-7-carboxamide] | 13 |
| CCOC(=O)C(C#N)=Cc1ccc(Nc2cnc3[nH]cc(C(=O)C(C)(C)C)c3n2)cc1 [compound 79, ethyl 2-cyano-3-(4-((7-pivaloyl-5H-pyrrolo[2,3-b]-pyrazin-2-yl)amino)phenyl)acrylate] | 100 |
| CN(C)C(=O)C(C#N)=Cc1ccc(Nc2cnc3[nH]cc(C(=O)C(C)(C)C)c3n2)c(F)c1 [compound 69, 2-cyano-3-(3-fluoro-4-((7-pivaloyl-5H-pyrrolo[2,3-b]pyrazin-2-yl)amino)phenyl)-N,N-dimethylacrylamide] | 0.5 |
| CCNC(=O)C(C#N)=Cc1ccc(Nc2cnc3[nH]cc(C(=O)C(C)(C)C)c3n2)cc1 [compound 77, 2-cyano-3-(4-((7-pivaloyl-5H-pyrrolo[2,3-b]pyrazin-2-yl)amino)phenyl)-N-ethylacrylamide] | 1 |
| CN(C)C(=O)C(C#N)=Cc1ccc(Nc2ncnc3[nH]ccc23)cc1 [compound 6, 3-(4-((7H-pyrrolo[2,3-d]pyrimidin-4-yl)amino)-phenyl)-2-cyano-N,N-dimethylacrylamide] | 580 |
| CN(C)C(=O)C(C#N)=Cc1ccc(Nc2cnc3[nH]cc(C(=O)C(C)(C)C)c3n2)s1 [compound 73, 2-cyano-N,N-dimethyl-3-(5-((7-pivaloyl-5H-pyrrolo[2,3-b]pyrazin-2-yl)amino)thiophen-2-yl)acrylamide] | 210 |
| CN(C)C(=O)C(C#N)=Cc1ccc(Nc2cnc3[nH]cc(C(=O)C(C)(C)C)c3n2)cc1F [compound 66, 2-cyano-3-(2-fluoro-4-((7-pivaloyl-5H-pyrrolo[2,3-b]pyrazin-2-yl)amino)phenyl)-N,N-dimethylacrylamide] | 0.7 |
| CC(C)(C)C(=O)c1c[nH]c2ncc(Nc3ccc(C=C(C#N)c4nccs4)cc3)nc12 [compound 82, 3-(4-((7-pivaloyl-5H-pyrrolo[2,3-b]pyrazin-2-yl)amino)phenyl)-2-(thiazol-2-yl)acrylonitrile] | 38.3 |
| CN(C)C(=O)C(C#N)=Cc1ccc(N(C)c2ncnc3[nH]ccc23)cc1 [compound 7, 2-cyano-N,N-dimethyl-3-(4-(methyl(7H-pyrrolo[2,3-d]pyrimidin-4-yl)amino)phenyl)acrylamide] | > 1000 |
| CN(C)C(=O)C(C#N)=Cc1cccc(-c2cnc3[nH]ccc3n2)c1 [compound 27, 3-(3-(5H-pyrrolo[2,3-b]pyrazin-2-yl)phenyl)-2-cyano-N,N-dimethylacrylamide] | > 1000 |
| CN1CCN(C(=O)C(C#N)=Cc2ccc(Nc3cnc4[nH]cc(C(=O)C(C)(C)C)c4n3)cc2)CC1 [compound 64, 2-(4-methylpiperazine-1-carbonyl)-3-(4-(7-pivaloyl-5H-pyrrolo[2,3-b]pyrazin-2-ylamino)phenyl)acrylonitrile] | 0.2 |
| CN(C(=O)C(C#N)=Cc1ccc(Nc2cnc3[nH]cc(C(=O)C(C)(C)C)c3n2)cc1)c1ccccc1 [compound 85, 2-cyano-N-methyl-N-phenyl-3-(4-((7-pivaloyl-5H-pyrrolo[2,3-b]pyrazin-2-yl)amino)phenyl)-acrylamide] | 5.5 |
| CN(C)C(=O)C(C#N)=Cc1cc(Nc2ncnc3[nH]ccc23)ccc1Cl [compound 17, 3-(5-((7H-pyrrolo[2,3-d]pyrimidin-4-yl)amino)-2-chlorophenyl)-2-cyano-N,N-dimethylacrylamide] | 1770 |
